Measurements published in patent publication EP2951180B1, “2,6,7,8 SUBSTITUTED PURINES AS HDM2 INHIBITORS” (Merck Sharp & Dohme Corp., priority 2013, dated 2014).

Biological target: T1, HDM2 (Homo sapiens, UniProt Q00987)
T1 construct: Thioredoxin (N); made in house; host or cells: E. coli strain BL21(DE3)Rosetta
Experiment: FRET assay (HDM2 inhibition; method not described in this part)
Assay type: binding

T1 sequence (Q00987 17-125): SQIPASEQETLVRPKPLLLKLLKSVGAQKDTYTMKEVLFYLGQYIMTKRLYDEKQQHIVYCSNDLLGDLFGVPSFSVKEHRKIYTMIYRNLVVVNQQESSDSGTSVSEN

## C[C@@H](Nc1nc(C(=O)O)nc2nc(-c3ccccc3C(F)(F)F)n(Cc3ccc(C(F)(F)F)cc3)c12)C1CCC1 [Example 2.79, 6-{[(1R)-1-cyclobutylethyl]amino}-7-[4-(trifluoromethyl)benzyl]-8-[2-(trifluoromethyl)phenyl]-7H-purine-2-carboxylic acid]
Table 2
  IC50: 13.4 nM

## CCc1ccc(OC)cc1-c1nc2nc(C(=O)O)nc(N[C@H](C)C3CCC3)c2n1Cc1ccc(C(F)(F)F)cc1 [Example 2.80, 6-{[(1R)-1-cyclobutylethyl]amino} -8-(2-ethyl-5-methoxyphenyl)-7-[4-(trifluoromethyl)benzyl]-7H-purine-2-carboxylic acid]
Table 2
  IC50: 11.1 nM

## CCc1ccccc1-c1nc2nc(C(=O)O)nc(N[C@H](C)C3CCC3)c2n1Cc1ccc(C(F)(F)F)cc1 [Example 2.81, 6-{[(1R)-1-cyclobutylethyl]amino} -8-(2-ethylphenyl)-7-[4-(trifluoromethyl)benzyl] - 7H-purine-2-carboxylic acid]
Table 2
  IC50: 18 nM

## CCc1ccc(C)cc1-c1nc2nc(C(=O)O)nc(N[C@H](C)C3CCC3)c2n1Cc1ccc(C(F)(F)F)cc1 [Example 2.82, 6-{[(1R)-1-cyclobutylethyl]amino}-8-(2-ethyl-5-methylphenyl)-7-[4-(trifluoromethyl)benzyl]-7H-purine-2-carboxylic acid]
Table 2
  IC50: 13.6 nM

## C[C@@H](Nc1nc(C(=O)O)nc2nc(-c3cnn(C)c3)n(Cc3ccc(C(F)(F)F)cc3)c12)C1CCC1 [Example 2.83, 6-{[(1R)-1-cyclobutylethyl]amino} -8-(1-methyl-1H-pyrazol-4-yl)-7-[4-(trifluoromethyl)benzyl] - 7H-purine-2-carboxylic acid]
Table 2
  IC50: 189 nM

## Cc1noc(C)c1-c1nc2nc(C(=O)O)nc(N[C@H](C)C3CCC3)c2n1Cc1ccc(C(F)(F)F)cc1 [Example 2.84, 6-{[(1R)-1-cyclobutylethyl]amino} -8-(3,5-dimethylisoxazol-4-yl)-7-[4-(trifluoromethyl)benzyl] - 7H-purine-2-carboxylic acid]
Table 2
  IC50: 79.4 nM

## C[C@@H](Nc1nc(C(=O)O)nc2nc(-c3nccn3C)n(Cc3ccc(C(F)(F)F)cc3)c12)C1CCC1 [Example 3.1, (R)-6-((1-cyclobutylethyl)amino)-8-(1-methyl-1H-imidazol-2-yl)-7-(4-(trifluoromethyl)benzyl)-7H-purine-2-carboxylic acid]
Table 3
  IC50: 161 nM

## CC(C)c1ccnc(-c2nc3nc(C(=O)O)nc(N[C@H](C)C4CCC4)c3n2Cc2ccc(C(F)(F)F)cc2)n1 [Example 3.2, (R)-6-((1-cyclobutylethyl)amino)-8-(4-isopropylpyrimidin-2-yl)-7-(4-(trifluoromethyl)benzyl)-7H-purine-2-carboxylic acid]
Table 3
  IC50: 22 nM

## CC(C)c1cnc(-c2nc3nc(C(=O)O)nc(N[C@H](C)C4CCC4)c3n2Cc2ccc(C(F)(F)F)cc2)s1 [Example 3.3, (R)-6-((1-cyclobutylethyl)amino)-8-(5-isopropylthiazol-2-yl)-7-(4-(trifluoromethyl)benzyl)-7H-purine-2-carboxylic acid]
Table 3
  IC50: 57.9 nM

## C[C@@H](Nc1nc(C(=O)O)nc2nc(-c3ncccn3)n(Cc3ccc(C(F)(F)F)cc3)c12)C1CCC1 [Example 3.4, 6-{[(1R)-1-cyclobutylethyl]amino}-8-pyrimidin-2-yl-7-[4-(trifluoromethyl)benzyl] -7H-purine-2-carboxylic acid]
Table 3
  IC50: 69.8 nM

## C[C@@H](Nc1nc(C(=O)O)nc2nc(-c3ncco3)n(Cc3ccc(C(F)(F)F)cc3)c12)C1CCC1 [Example 3.5, 6-{[(1R)-1-cyclobutylethyl]amino}-8-(1,3-oxazol-2-yl)-7-[4-(trifluoromethyl)benzyl] -7H-purine-2-carboxylic acid]
Table 3
  IC50: 30 nM

## CC(C)c1csc(-c2nc3nc(C(=O)O)nc(N[C@H](C)C4CCC4)c3n2Cc2ccc(C(F)(F)F)cc2)n1 [Example 3.6, 6-{[(1R)-1-cyclobutylethyl]amino}-8-[4-(1-methylethyl)-1,3-thiazol-2-yl]-7-[4-(trifluoromethyl)benzyl] -7H-purine-2-carboxylic acid]
Table 3
  IC50: 312 nM

## Cc1cnc(-c2nc3nc(C(=O)O)nc(N[C@H](C)C4CCC4)c3n2Cc2ccc(C(F)(F)F)cc2)s1 [Example 3.7, 6-{[(1R)-1-cyclobutylethyl]amino}-8-(5-methyl-1,3-thiazol-2-yl)-7-[4-(trifluoromethyl)benzyl] -7H-purine-2-carboxylic acid]
Table 3
  IC50: 42 nM

## C[C@@H](Nc1nc(C(=O)O)nc2nc(-c3nccs3)n(Cc3ccc(Cl)cc3)c12)C1CC1 [Example 3.8, 7-(4-chlorobenzyl)-6-{[(1R)-1-cyclopropylethyl]amino}-8-(1,3-thiazol-2-yl)-7H-purine-2-carboxylic acid]
Table 3
  IC50: 98.8 nM

## C[C@@H](Nc1nc(C(=O)O)nc2nc(-c3nccs3)n(Cc3ccc(C(F)(F)F)cc3)c12)C1CCC1 [Example 3.9, 6-{[(1R)-1-cyclobutylethyl]amino}-8-(1,3-thiazol-2-yl)-7-[4-(trifluoromethyl)benzyl] -7H-purine-2-carboxylic acid]
Table 3
  IC50: 7.86 nM

## CCOc1ccc(C)cc1-c1nc2nc(C(=O)O)nc(N[C@H](C)C3CCC3)c2n1Cc1ccc(Cl)cc1 [Example 4.1, (R)-7-(4-chlorobenzyl)-6-((1-cyclobutylethyl)amino)-8-(2-ethoxy-5-methylphenyl)-7H-purine-2-carboxylic acid]
Table 4
  IC50: 32 nM

## Cc1ccc(C)c(-c2nc3nc(C(=O)O)nc(N[C@H](C)C4CCC4)c3n2Cc2ccc(Cl)cc2)c1 [Example 4.2, (R)-7-(4-chlorobenzyl)-6-((1-cyclobutylethyl)amino)-8-(2,5-dimethylphenyl)-7H-purine-2-carboxylic acid]
Table 4
  IC50: 40.4 nM

## C=CCCOc1ccc(C)cc1-c1nc2nc(C(=O)O)nc(N[C@H](C)C3CC3)c2n1Cc1ccc(Cl)cc1 [Example 4.3, (R)-8-(2-(but-3-en-1-yloxy)-5-methylphenyl)-7-(4-chlorobenzyl)-6-((1-cyclopropylethyl)amino)-7H-purine-2-carboxylic acid]
Table 4
  IC50: 104 nM

## COCCCOc1ccc(C)cc1-c1nc2nc(C(=O)O)nc(N[C@H](C)C3CCC3)c2n1Cc1ccc(Cl)cc1 [Example 4.4, (R)-7-(4-chlorobenzyl)-6-((1-cyclobutylethyl)amino)-8-(2-(3-methoxypropoxy)-5-methylphenyl)-7H-purine-2-carboxylic acid]
Table 4
  IC50: 48.7 nM

## COCCCOc1ccc(C)cc1-c1nc2nc(C(=O)O)nc(N[C@H](C)C3CC3)c2n1Cc1ccc(Cl)cc1 [Example 4.5, (R)-7-(4-chlorobenzyl)-6-((1-cyclopropylethyl)amino)-8-(2-(3-methoxypropoxy)-5-methylphenyl)-7H-purine-2-carboxylic acid]
Table 4
  IC50: 162 nM

## Cc1ccc(OCCCO)c(-c2nc3nc(C(=O)O)nc(N[C@H](C)C4CCC4)c3n2Cc2ccc(Cl)cc2)c1 [Example 4.6, (R)-7-(4-chlorobenzyl)-6-((1-cyclobutylethyl)amino)-8-(2-(3-hydroxypropoxy)-5-methylphenyl)-7H-purine-2-carboxylic acid]
Table 4
  IC50: 33.7 nM

## CCOc1ccc(C)cc1-c1nc2nc(C(=O)O)nc(N[C@H](C)C3CC3)c2n1Cc1ccc(Cl)cc1 [Example 4.7, (R)-7-(4-chlorobenzyl)-6-((1-cyclopropylethyl)amino)-8-(2-ethoxy-5-methylphenyl)-7H-purine-2-carboxylic acid]
Table 4
  IC50: 123 nM

## COCCOc1ccc(C)cc1-c1nc2nc(C(=O)O)nc(N[C@H](C)C3CCC3)c2n1Cc1ccc(Cl)cc1 [Example 4.8, (R)-7-(4-chlorobenzyl)-6-((1-cyclobutylethyl)amino)-8-(2-(2-methoxyethoxy)-5-methylphenyl)-7H-purine-2-carboxylic acid]
Table 4
  IC50: 55 nM

## COCCOc1ccc(C)cc1-c1nc2nc(C(=O)O)nc(N[C@H](C)C3CC3)c2n1Cc1ccc(Cl)cc1 [Example 4.9, (R)-7-(4-chlorobenzyl)-6-((1-cyclopropylethyl)amino)-8-(2-(2-methoxyethoxy)-5-methylphenyl)-7H-purine-2-carboxylic acid]
Table 4
  IC50: 27.3 nM

## Cc1ccc(OCCO)c(-c2nc3nc(C(=O)O)nc(N[C@H](C)C4CC4)c3n2Cc2ccc(Cl)cc2)c1 [Example 4.10, (R)-7-(4-chlorobenzyl)-6-((1-cyclopropylethyl)amino)-8-(2-(2-hydroxyethoxy)-5-methylphenyl)-7H-purine-2-carboxylic acid]
Table 4
  IC50: 238 nM

## Cc1ccc(OCCC(=O)O)c(-c2nc3nc(C(=O)O)nc(N[C@H](C)C4CC4)c3n2Cc2ccc(Cl)cc2)c1 [Example 4.11, (R)-8-(2-(2-carboxyethoxy)-5-methylphenyl)-7-(4-chlorobenzyl)-6-((1-cyclopropylethyl)amino)-7H-purine-2-carboxylic acid]
Table 4
  IC50: 312 nM

## Cc1ccc(OCCC(=O)NCCO)c(-c2nc3nc(C(=O)O)nc(N[C@H](C)C4CC4)c3n2Cc2ccc(Cl)cc2)c1 [Example 4.12, (R)-7-(4-chlorobenzyl)-6-((1-cyclopropylethyl)amino)-8-(2-(3-((2-hydroxyethyl)amino)-3-oxopropoxy)-5-methylphenyl)-7H-purine-2-carboxylic acid]
Table 4
  IC50: 348 nM

## CNC(=O)CCOc1ccc(C)cc1-c1nc2nc(C(=O)O)nc(N[C@H](C)C3CC3)c2n1Cc1ccc(Cl)cc1 [Example 4.13, (R)-7-(4-chlorobenzyl)-6-((1-cyclopropylethyl)amino)-8-(5-methyl-2-(3-(methylamino)-3-oxopropoxy)phenyl)-7H-purine-2-carboxylic acid]
Table 4
  IC50: 487 nM

## Cc1ccc(OCCCN2CCOCC2)c(-c2nc3nc(C(=O)O)nc(N[C@H](C)C4CC4)c3n2Cc2ccc(Cl)cc2)c1 [Example 4.14, (R)-7-(4-chlorobenzyl)-6-((1-cyclopropylethyl)amino)-8-(5-methyl-2-(3-morpholinopropoxy)phenyl)-7H-purine-2-carboxylic acid]
Table 4
  IC50: 212 nM

## COCCN(CCCOc1ccc(C)cc1-c1nc2nc(C(=O)O)nc(N[C@H](C)C3CC3)c2n1Cc1ccc(Cl)cc1)CCOC [Example 4.15, (R)-8-(2-(3-(bis(2-methoxyethyl)amino)propoxy)-5-methylphenyl)-7-(4-chlorobenzyl)-6-((1-cyclopropylethyl)amino)-7H-purine-2-carboxylic acid]
Table 4
  IC50: 667 nM
